The record followed here is patent US7026516B2 (priority 2000, dated 2006).

One series has as its target T1, dopamine transporter (Macaca fascicularis, UniProt Q9GJT6).
T1 construct: Each caudate-putamen was homogenized and used separately for dopamine and serotonin transporter assays; from tissue; host or cells: caudate-putamen membranes of adult cynomolgus or rhesus monkey brain
The series can be described thus: Inhibition of [3H]WIN 35,428 binding to the dopamine transporter in monkey caudate-putamen.

The target in another series is T2, serotonin transporter (Macaca mulatta, UniProt Q9MYX0).
T2 construct: Each caudate-putamen was homogenized and used separately for dopamine and serotonin transporter assays; from tissue; host or cells: caudate-putamen membranes of adult cynomolgus or rhesus monkey brain
T2 sequence (Q9MYX0 whole entry): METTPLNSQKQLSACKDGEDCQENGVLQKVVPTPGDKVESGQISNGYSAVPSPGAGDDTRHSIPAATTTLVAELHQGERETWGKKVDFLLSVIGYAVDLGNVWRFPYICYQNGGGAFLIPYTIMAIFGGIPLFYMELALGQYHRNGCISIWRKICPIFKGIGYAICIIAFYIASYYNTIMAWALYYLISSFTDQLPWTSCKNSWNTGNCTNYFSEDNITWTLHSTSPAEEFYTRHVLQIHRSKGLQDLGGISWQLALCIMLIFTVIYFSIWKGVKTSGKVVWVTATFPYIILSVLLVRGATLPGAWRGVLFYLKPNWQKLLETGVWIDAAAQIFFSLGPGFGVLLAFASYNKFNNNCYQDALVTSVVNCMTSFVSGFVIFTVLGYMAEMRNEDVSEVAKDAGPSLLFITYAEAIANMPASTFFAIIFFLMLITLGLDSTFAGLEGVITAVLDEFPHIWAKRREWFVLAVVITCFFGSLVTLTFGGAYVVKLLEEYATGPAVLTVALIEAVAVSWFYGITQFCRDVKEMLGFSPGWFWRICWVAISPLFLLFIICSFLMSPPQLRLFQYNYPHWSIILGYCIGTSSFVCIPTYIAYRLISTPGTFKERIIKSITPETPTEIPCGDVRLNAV
As to the kind of experiment: biochemical. The format is binding. The protocol: The affinities and transporter selectivities of the drugs were assessed in brain tissue of adult cynomolgus or rhesus monkey (Macaca fasicularis or Macaca Mulatta). Caudate-putamen was the source of the dopamine and serotonin transporters. The dopamine transporter affinity was measured with [3H]WIN 35,428 ([3H]CFT), the serotonin transporter was measured with [3H]citalopram and the norepinephrine transporter was measured with [3H]nisoxetine. Affinities of selected compounds were also measured at the human dopamine transporter in HEK-293 cells expressing the human dopamine transporter (hDAT).
Brain tissue was harvested from adult male and female cynomolgus (Macaca fasicularis) or rhesus (Macaca Mulatta) monkeys euthanized in the course of other research or after spontaneous death. Tissue was stored in the brain bank at the New England Regional Primate Research Center at −85° C. The caudate-putamen (approximately 1.5 g) was dissected from coronal sections of brain. Each caudate-putamen was homogenized and used separately for dopamine and serotonin transporter assays. Prior to homogenization, the thalamus from two brains was pooled and membranes were prepared as described previously for norepinephrine transporter assays (Madras et al., Synapse, 22:231–232, 1998; Madras et al., Synapse, 24:340–348, 1996). Briefly, the tissue was homogenized in 10 volumes (w/v) of ice-cold Tris.HCl buffer (50 mM, pH 7.4 at 0–4° C.) and centrifuged at 38,700×g for 20 min in the cold. The resulting pellet was resuspended in 40 volumes of buffer, and the entire wash procedure was repeated twice. The membrane suspension (25 mg original wet weight of tissue/ml) was diluted to 12 mg/ml in buffer just prior to assay and dispersed with a Brinkmanm polytron (setting #5) for 15 sec. […] All experiments were conducted in triplicate and each experiment was repeated in 2–4 individual tissue preparations.
The serotonin transporter was assayed in caudate-putamen membranes using similar assay conditions as for the dopamine transporter. […] The affinity of drugs for the serotonin transporter labeled by [^3H]citalopram (spec. act.: approximately 85 Ci/mmol, NEN) was determined in experiments by incubating tissue with a fixed concentration of [^3H]citalopram and a range of concentrations of drug. Assays were conducted in Tris-HCl buffer containing NaCl (100 mM) and the following constituents: [^3 H]citalopram (1 nM, 0.2 ml), test drug (1 pM–100 TM, 0.2 ml) and tissue (0.2 ml, 3 mg/ml original wet tissue weight). The 2 h incubation (0–4° C.) was initiated by addition of membranes and terminated by rapid filtration over Whatman GF/B glass fiber filters pre-soaked 1 hour in 0.1% polyethyleneimine. The filters were washed three times with 5 ml Tris.HCl buffer (50 mM), and the remaining steps were carried out as described above. Total binding was defined as [^3H]citalopram bound in the presence of ineffective concentrations of unlabeled citalopram (1 pM) or the test compounds. Non-specific binding was defined as [^3H]citalopram bound in the presence of an excess (10 TM) of fluoxetine. Specific binding was the difference between the two values. Cpm were converted to dpm following determination of counting efficiency (>45%) of each vial by external standardization.
Data were analyzed by the EBDA and LIGAND computer software programs (ElsevierBiosoft, U.K.) Final estimates of IC50 and nH values were computed by the EBDA program. Baseline values for the individual drugs were established by computer analysis, using the baseline drugs as a guide. The LIGAND program provided final parameter estimates for the affinity of the radioligand (Kd) by iterative non-linear curve-fitting and evaluation of one- or two-component binding models. LIGAND was used to measure the affinity of the radioligands at the dopamine and serotonin transporter. Graphs (not shown) were produced by the computer software program PRISM, using a one- or two-site competition analysis curve.

[1] abbreviates: Table 1, [3H]citalopram, monkey caudate-putamen, mean of 3 or more experiments, read-out: SERT IC50.
[2] abbreviates: Table 2, affinity at the serotonin transporter, read-out: SERT IC50.
Where [3] appears, read: Table 2, affinity at the dopamine transporter, read-out: DAT IC50.
[4] abbreviates: Table 2, ratio of SERT and DAT IC50 values.
[5] abbreviates: Table 1, [3H]WIN 35,428, monkey caudate-putamen, mean of 3 or more experiments, read-out: DAT IC50.
[6] abbreviates: read-out: IC50, binding potency at the DAT.

Like-named read-outs stand apart in the source and are kept apart here. Bounds are passed on as bounds.

T1 sequence (Q9GJT6 whole entry): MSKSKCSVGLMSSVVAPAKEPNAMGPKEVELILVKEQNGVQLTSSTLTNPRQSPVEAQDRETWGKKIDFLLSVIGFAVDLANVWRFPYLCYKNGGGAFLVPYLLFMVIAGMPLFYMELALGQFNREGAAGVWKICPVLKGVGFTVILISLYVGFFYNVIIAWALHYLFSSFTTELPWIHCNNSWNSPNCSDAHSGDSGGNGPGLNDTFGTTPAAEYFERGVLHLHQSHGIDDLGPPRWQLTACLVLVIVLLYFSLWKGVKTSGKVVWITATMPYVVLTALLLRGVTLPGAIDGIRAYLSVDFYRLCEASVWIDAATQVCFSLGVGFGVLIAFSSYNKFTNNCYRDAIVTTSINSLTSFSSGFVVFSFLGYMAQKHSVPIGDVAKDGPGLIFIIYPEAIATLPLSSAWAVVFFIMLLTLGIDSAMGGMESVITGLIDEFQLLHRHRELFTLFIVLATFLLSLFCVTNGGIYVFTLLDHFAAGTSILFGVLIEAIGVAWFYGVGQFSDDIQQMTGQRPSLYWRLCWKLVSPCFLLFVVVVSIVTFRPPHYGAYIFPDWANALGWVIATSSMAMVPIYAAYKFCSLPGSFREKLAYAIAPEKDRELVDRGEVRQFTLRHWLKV

For the compound `COC(=O)C(c1ccccc1)C1CCCCN1` (centres unmarked) [Methylphenidate, reference compound], on dopamine transporter, the “DAT/SERT RATIO” value is 5,800 and the IC50 was 17.2 ± 2.04 nM. The 50% inhibitory concentration (IC50) on serotonin transporter is more than 100000 nM.
As to `COC(=O)[C@H](c1ccc(Cl)c(Cl)c1)[C@H]1CCCCO1` [Compound O-1783], the concentration for half-maximal inhibition (IC50) on dopamine transporter was 17 ± 1.3 nM; at serotonin transporter (setting [1]), more than 10000 nM; on serotonin transporter (setting [2]), more than 10000 nM.
For `CO[C@@H]1C[C@@H](c2ccc(Cl)c(Cl)c2)c2ccccc21` (relative stereo) [Compound 0-1630, Trans-1-Methoxy-3-(3,4-dichlorophenyl)indans], the half-maximal inhibitory concentration (IC50) is 60 ± 23 nM on dopamine transporter (setting [3]) and 334 ± 100 nM on serotonin transporter (setting [2]). The “DAT/SERT RATIO” value at dopamine transporter (setting [4]) came out at 6.
In turn, `O=C(O)[C@H](c1ccc(Cl)c(Cl)c1)[C@H]1CCCCO1` registered a melting point of 139.1 to 140.1 °C.
Regarding `COC(=O)[C@@H](c1ccc(Cl)c(Cl)c1)[C@@H]1CCCCO1` [Compound O-1794, 2S-(3,4-Dichlorophenyl)tetrahydropyran-2′S-yl acetic acid methyl ester], the half-inhibitory concentration (IC50) on dopamine transporter came to 33.9 ± 8.6 nM; at serotonin transporter (setting [1]) it was 1660 nM.
`COC(=O)[C@@H](c1ccc(Cl)c(Cl)c1)[C@H]1CCCCO1` [Compound O-1793, 2S-(3,4-Dichlorophenyl)tetrahydropyran-2′R-yl acetic acid methyl ester]: the IC50 on serotonin transporter (setting [1]) and at serotonin transporter (setting [2]) was more than 10000 nM throughout.
With `CO[C@@H]1C[C@H](c2ccc(Cl)c(Cl)c2)c2ccccc21` (relative stereo) [Compound 0-1617, Cis-1-Methoxy-3-(3,4-dichlorophenyl)indans], the IC50 on dopamine transporter (setting [3]) is 130 ± 49.7 nM; on serotonin transporter (setting [2]) it was more than 4100 nM. In addition, the “DAT/SERT RATIO” value at dopamine transporter (setting [4]) is reported as more than 32.
For the compound `CO[C@@H]1C[C@H](c2ccc3ccccc3c2)c2ccccc21` (relative stereo) [Compound 0-1833, Cis-3-(2-Naphthyl)-0-methylindanol], the IC50 on dopamine transporter (setting [3]) came to 189 ± 12 nM; on serotonin transporter (setting [2]) it was 422 ± 38 nM. Moreover, on dopamine transporter (setting [4]), the “DAT/SERT RATIO” value amounted to 2.
Turning to `N#CC(c1ccc(Cl)c(Cl)c1)C1CCCC1` (stereo not drawn) [Compound 10, α-cyclopentyl-3,4-dichlorobenzylcyanide], the concentration for half-maximal inhibition (IC50) on dopamine transporter (setting [5]) and on dopamine transporter (setting [3]) was 128 nM throughout. For the same compound, on dopamine transporter (setting [4]), the “DAT/SERT RATIO” value was 78.
Compound `O=C(O)C(c1ccc(Cl)c(Cl)c1)C1CCCCO1` (centres unmarked) yielded a melting point of 138.9 to 139.9 °C.
On the same count and under the same terms, under `O=C(O)[C@H](c1ccc(Cl)c(Cl)c1)C1CCCCO1` (some centres unmarked) stands 124.1 to 125.1 °C.
Consider `COC(=O)C(c1ccc(Cl)c(Cl)c1)C1CCCCO1` (centres unmarked) [Compound 0-1731, 2-(3,4-Dichlorophenyl)tetrahydropyran-2-yl acetic acid methyl esters], for which the concentration for half-maximal inhibition (IC50) is 286 ± 10.5 nM on dopamine transporter (setting [3]) and 7800 nM at serotonin transporter (setting [2]).
Consider `COC(=O)C(c1ccc(Cl)c(Cl)c1)C1CCCCO1` (centres unmarked) [Compound 0-1730, 2-(3,4-Dichlorophenyl)tetrahydropyran-2-yl acetic acid methyl esters], for which the IC50 at serotonin transporter (setting [2]) is 2180 nM.
For `CO[C@@H]1C[C@@H](c2ccc3ccccc3c2)c2ccccc21` (relative stereo) [Compound 0-1925, Trans-1-Methoxy-3-(2-naphthyl)indans], the IC50 is 213 ± 27 nM at dopamine transporter (setting [3]) and 136 ± 4.5 nM on serotonin transporter (setting [2]). Besides, the “DAT/SERT RATIO” value on dopamine transporter (setting [4]) came to 0.6.
In the case of `COC(=O)[C@H](c1ccc(Cl)c(Cl)c1)[C@@H]1CCCCO1` [Compound O-1792, 2R-(3,4-Dichlorophenyl)tetrahydropyran-2′S-yl acetic acid methyl ester], the IC50 at serotonin transporter (setting [1]) and at serotonin transporter (setting [2]) was more than 10000 nM in each case.
For the compound `N#CC(c1ccc(Cl)c(Cl)c1)C1CCCCC1` (stereo not drawn) [Compound 8, α-cyclohexyl-3,4-dichlorobenzylcyanide], the IC50 at dopamine transporter (setting [3]) was 127 nM; at dopamine transporter (setting [6]) it was 127 to 146 nM; on serotonin transporter (setting [1]), 8000 nM; at serotonin transporter (setting [2]), 8000 nM; at serotonin transporter (read-out: IC50, binding potency at the SERT) it was 8000 to 12000 nM. For the same compound, at dopamine transporter (setting [4]), the “DAT/SERT RATIO” value amounted to 63.
`COC(=O)C(c1ccc2ccccc2c1)C1CCCCO1` (centres unmarked) [Naphthyl mixture, (2-Naphthyl)-(tetrahydropyran-2-yl) acetic acid methyl esters]: the half-inhibitory concentration (IC50) came to 300 nM at dopamine transporter (setting [5]); 300 nM on dopamine transporter (setting [3]); 300 nM at dopamine transporter (binding to the DAT, read-out: DAT IC50); 300 nM on dopamine transporter (setting [6]); 5000 nM on serotonin transporter (setting [1]); 5000 nM at serotonin transporter (setting [2]). In addition, on serotonin transporter (binding to the SERT, read-out: SERT IC50), the concentration for half-maximal inhibition (IC50) was 5000 nM. Also, the “DAT/SERT RATIO” value on dopamine transporter (setting [4]) was found to be 16.7.
